{
  "source": "patent US20140155397A1",
  "about": "“EMT SIGNATURES AND PREDICTIVE MARKERS AND METHOD OF USING THE SAME” (Board of Regents, priority 2011, published 2014)",
  "key": {"[1]": {"test_system": "NSCLC cell lines", "test": "Drug sensitivity (growth inhibition, MTS assay) of epithelial versus mesenchymal NSCLC cell lines", "assay_type": "cell-based", "source_text": "(§1) Average values were used for analysis as described. […] Chou T. C., et al., Quantitative Analysis of Dose-Effect Relationships: The Combined Effects of Multiple Drugs or Enzyme Inhibitors. Adv Enzyme Regul.\nThe EMT signature was derived in 54 DNA fingerprinted NSCLC cell lines profiled on Affymetrix U133A, B, and Plus2.0 arrays and tested on the Illumina WGv2 and WGv3 platforms and in an independent set of head and neck cancer lines (HNC). E-cadherin and other protein levels were quantified by reverse phase protein array and correlated with the first principal component of the EMT signature. IC50s were determined for NSCLC cell lines by MTS assay. Response to erlotinib was evaluated in patients treated in the BATTLE clinical trial using eight-week disease […] and progression free survival."}, "[2]": {"test_system": "H1299", "test": "Proliferation, CellTiter-Glo Luminescent Cell Viability", "assay_type": "cell-based", "conditions": "Homo sapiens, NCI-H1299, single agent", "source_text": "as §1"}, "[3]": {"test_system": "H157", "test": "Proliferation, CellTiter-Glo Luminescent Cell Viability", "assay_type": "cell-based", "conditions": "Homo sapiens, NCI-H157, single agent", "source_text": "as §1"}, "[4]": {"test_system": "H2882", "test": "Proliferation, CellTiter-Glo Luminescent Cell Viability", "assay_type": "cell-based", "conditions": "NCI-H2882, single agent", "source_text": "as §1"}, "[5]": {"test_system": "A549", "test": "Proliferation, CellTiter-Glo Luminescent Cell Viability", "assay_type": "cell-based", "conditions": "Homo sapiens, single agent", "source_text": "as §1"}, "[6]": {"test_system": "H460", "test": "Proliferation, CellTiter-Glo Luminescent Cell Viability", "assay_type": "cell-based", "conditions": "Homo sapiens, NCI-H460, single agent", "source_text": "as §1"}, "[7]": {"test_system": "Calu-1", "test": "Proliferation, CellTiter-Glo Luminescent Cell Viability", "assay_type": "cell-based", "conditions": "Homo sapiens, single agent", "source_text": "as §1"}, "[8]": {"test_system": "Cells expressing high levels of Axl", "test": "Proliferation of six mesenchymal cell lines expressing high levels of Axl (summary)", "assay_type": "cell-based", "conditions": "single agent", "source_text": "as §1"}, "[9]": {"test_system": "NSCLC patients", "test": "BATTLE clinical trial, 8-week disease control and progression-free survival", "assay_type": "in vivo, human", "source_text": "BATTLE (Biomarker-integrated Approaches of Targeted Therapy for Lung Cancer Elimination) was a randomized, biomarker-based clinical trial for patients with recurrent or metastatic NSCLC in the second-line setting (Trial registration ID: NCT00409968). Kim E. S. H. R., The BATTLE Trial: Personalizing Therapy for Lung Cancer, Cancer Discovery 1:43-51 (2011). mRNA from tumors obtained via core-needle biopsy at enrollment were profiled on Human Gene 1.0 ST array, Affymetrix. Array results were deposited in the GEO repository (GSE33072).\nWe used pretreatment gene expression profiles (Affymetrix […]) from 101 chemo-refractory patients in our Biomarkers-Integrated Approaches of Targeted Therapy for Lung Cancer Elimination (BATTLE) treated with E, E+bexarotene (EB), sorafenib (S), or vandetanib (V). 24 cases of with EGFR & KRAS tumors treated with E or EB were compared to train the signature (two-sided t-test), using the primary end-point of the trial[8-week disease control (8 with DC)]. Principal component (PC) analysis and a logistic regression model were used to develop the signature. Gene expression profiles from 108 NSCLC cell lines (Illumina), with available E IC50 (N=94) and DNA methylation profiling (N=66, Illumina), were used for in vitro studies."}},
  "note": "Read-outs that look alike come from different tables or passages of the source.",
  "data": [
    {"compound": "Nc1ncnc2c1nc(N)n2[C@@H]1O[C@H](CO)[C@@H](O)[C@H]1O", "note": "[8-amino-adenosine]", "values": [
      {"measurement": "Fold higher mean IC50 in mesenchymal versus epithelial cell lines", "setting": "[1]; all NSCLC cell lines", "result": 1.7, "unit": "fold"}
    ]},
    {"compound": "C#Cc1cccc(Nc2ncnc3cc(OCCOC)c(OCCOC)cc23)c1", "note": "[Erlotinib, erlotinib]", "values": [
      {"measurement": "IC50", "setting": "[2]", "result": "> 100", "unit": "µM"},
      {"measurement": "IC50", "setting": "[3]", "result": 48.5, "unit": "µM"},
      {"measurement": "IC50", "setting": "[4]", "result": "> 100", "unit": "µM"},
      {"measurement": "IC50", "setting": "[5]", "result": 13.5, "unit": "µM"},
      {"measurement": "IC50", "setting": "[6]", "result": "> 100", "unit": "µM"},
      {"measurement": "IC50", "setting": "[7]", "result": "> 100", "unit": "µM"},
      {"measurement": "Sensitivity of mesenchymal cells", "setting": "[1]; SGI-7079 versus erlotinib, p<0.001 by Wilcoxon test", "result": "uniformly resistant"},
      {"measurement": "Fold higher mean IC50 in mesenchymal versus epithelial cell lines", "setting": "[1]; all NSCLC cell lines", "result": 3.7, "unit": "fold"},
      {"measurement": "Fold higher mean IC50 in mesenchymal versus epithelial cell lines", "setting": "[1]; subset with wild-type EGFR and wild-type KRAS", "result": 2, "unit": "fold"},
      {"measurement": "IC50", "setting": "[8]; read-out: IC50 range across cell lines", "result": "≥ 13.5", "unit": "µM"},
      {"measurement": "IC50", "setting": "[8]; read-out: Mean IC50 across cell lines", "result": 77, "unit": "µM"},
      {"measurement": "8-week DC rate", "setting": "[9]; 5-gene signature-negative group", "result": 0, "unit": "%"},
      {"measurement": "8-week DC rate", "setting": "[9]; 5-gene signature-positive group", "result": 83, "unit": "%"},
      {"measurement": "Median PFS", "setting": "[9]; signature-negative group", "result": 7.2, "unit": "weeks"},
      {"measurement": "Median PFS", "setting": "[9]; signature-positive group", "result": 12.5, "unit": "weeks"},
      {"measurement": "Progression-free survival hazard ratio", "setting": "[9]; signature-positive versus signature-negative group, 95% CI 0.03-0.46", "result": 0.12},
      {"measurement": "Patients with 8-week disease control (DC)", "setting": "[9]; wildtype EGFR and KRAS patients with mesenchymal signatures", "result": "1/5"}
    ]},
    {"compound": "CS(=O)(=O)N1CCN(Cc2cc3nc(-c4cccc5[nH]ncc45)nc(N4CCOCC4)c3s2)CC1", "note": "[GDC0941]", "values": [
      {"measurement": "Fold higher mean IC50 in mesenchymal versus epithelial cell lines", "setting": "[1]; all NSCLC cell lines", "result": 1.9, "unit": "fold"}
    ]},
    {"compound": "NC1(c2ccc(-c3nc4ccn5c(=O)[nH]nc5c4cc3-c3ccccc3)cc2)CCC1", "note": "[MK2206]", "values": [
      {"measurement": "Fold higher mean IC50 in mesenchymal versus epithelial cell lines", "setting": "[1]; all NSCLC cell lines", "result": 1.5, "unit": "fold"}
    ]},
    {"compound": "CNC(=O)c1cc(Oc2ccc(NC(=O)Nc3ccc(Cl)c(C(F)(F)F)c3)cc2)ccn1", "note": "[sorafenib]", "values": [
      {"measurement": "Fold higher mean IC50 in mesenchymal versus epithelial cell lines", "setting": "[1]; all NSCLC cell lines", "result": "not more resistant"}
    ]}
  ]
}
